# From patent publication US8802664B2 (Bioproject, priority 2010, dated 2014)
# Experiments:
# human H4 receptor = target: T1, human H4 receptor (Homo sapiens, UniProt Q9H3N8); assay: [3H]Histamine binding on membranes of CHO cells stably expressing human H4 receptor
# T1 construct: expressed in transfected cells
# In short: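 CHO-hH4 membranes 20 μg/well; buffer 50 mM Tris/HCl, 0.5 mM EDTA, pH 7.4; NSB: 10 μM JNJ 7777120 (BP1.2404); GF/B filtration (PEI-presoaked), 3 ice-cold washes; scintillation counting.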
SMILES,Ki or IC50 activity class (human H4 receptor) [nM],melting point [°C]
"CN1CCC(OC(c2ccccc2)c2nc3cc(Cl)c(Cl)cc3[nH]2)CC1 (stereo not drawn) [Example 165, 5,6-dichloro-2-[(1-methylpiperidin-4-yloxy)phenylmethyl]-1H-benzimidazole]",< 300,221
"CN1CCC(OC(c2cccc(OCCN)c2)c2nc3ccccc3s2)CC1 (stereo not drawn) [Example 271, 2-{3-[benzothiazol-2-yl(1-methylpiperidin-4-yloxy)methyl]phenoxy}ethylamine]",< 30,76
"CN1CCC(NC(c2cccc(-c3ccccc3)c2)c2nc3ccccc3[nH]2)CC1 (stereo not drawn) [Example 94, [(1H-benzimidazol-2-yl)biphenyl-3-ylmethyl](1-methylpiperidin-4-yl)amine]",< 30,98
"CN1CCC(NC(c2cccc(N=[N+]=[N-])c2)c2nc3ccccc3[nH]2)CC1 (stereo not drawn) [Example 132, [(3-azidophenyl)(1H-benzimidazol-2-yl)methyl](1-methylpiperidin-4-yl)amine]",< 300,202
CN1CCC(OC(c2nc3ccccc3[nH]2)c2cc(SCCCF)ccc2O)CC1 (stereo not drawn) [Example 612],< 30,128
COc1cccc(C(OC2CCN(C)CC2)c2nc3ccccc3[nH]2)c1 (stereo not drawn) [Example 542],< 30,83
"Cc1ccc(C(NC2CCN(C)CC2)c2nc3ccccc3[nH]2)cc1 (stereo not drawn) [Example 273, [(1H-benzimidazol-2-yl)-p-tolyl-methyl](1-methylpiperidin-4-yl)amine]",< 1000,183
CCCc1ccc(O)c(C(OC2CCN(C)CC2)c2nc3ccccc3[nH]2)c1 (stereo not drawn) [Example 591],< 300,120
"COc1ccc(COc2cccc(C(NC3CCN(C)CC3)c3nc4ccccc4[nH]3)c2)cc1 (stereo not drawn) [Example 124, {(1H-benzimidazol-2-yl)[3-(4-methoxybenzyloxy)phenyl]methyl}(1-methylpiperidin-4-yl)amine]",< 30,84
"CN1CCC(OC(c2cccc(C#CCCCNC(=N)NC(=O)OC(C)(C)C)c2)c2nc3ccccc3s2)CC1 (stereo not drawn) [Example 339, N-tert-butoxycarbonyl-N′-(5-{3-[(benzothiazol-2-yl)(1-methylpiperidin-4-yloxy)methyl]phenyl}pent-5-ynyl)guanidine]",< 300,125
"CN1CCC(OC(c2cccc(SCc3ccccc3)c2)c2nc3ccccc3s2)CC1 (stereo not drawn) [Example 148, 2-[(3-benzylsulfanylphenyl)(1-methylpiperidin-4-yloxy)methyl]benzothiazole]",< 300,195
"CC(C)c1cccc(C(NC2CCN(C)CC2)c2nc3ccccc3[nH]2)c1 (stereo not drawn) [Example 66, [(1H-benzimidazol-2-yl)(3-isopropylphenyl)methyl](1-methylpiperidin-4-yl)amine]",< 1000,82
"Cc1cccc(C(OC2CCN(C)CC2)c2nc3ccccc3[nH]2)c1 (stereo not drawn) [Example 164, 2-[(1-methylpiperidin-4-yloxy)(m-tolyl)methyl]-1H-benzimidazole]",< 300,119
"CN1CCC(OC(c2cccc(-c3cncnc3)c2)c2nc3ccccc3s2)CC1 (stereo not drawn) [Example 216, 2-[(1-methylpiperidin-4-yloxy)(3-pyrimidin-5-yl-phenyl)methyl]benzothiazole]",< 300,85
"CN1CCC(NC(c2cccc(O)c2)c2nc3ccccc3[nH]2)CC1 (stereo not drawn) [Example 126, 3-[(1H-benzimidazol-2-yl)(1-methylpiperidin-4-ylamino)methyl]phenol]",< 300,230
"CN1CCC(NC(c2cccc(OC(F)(F)F)c2)c2nc3ccccc3[nH]2)CC1 (stereo not drawn) [Example 60, [(1H-benzimidazol-2-yl)(3-trifluoromethoxyphenyl)methyl](1-methylpiperidin-4-yl)amine]",< 30,82
CN1CCC(OC(c2nc3cc(F)ccc3[nH]2)c2cc(C#CCCCN)ccc2F)CC1 (stereo not drawn) [Example 558],< 30,90
"CN1CCC(NC(c2cccc(OCC3CCCCC3)c2)c2nc3ccccc3[nH]2)CC1 (stereo not drawn) [Example 73, [(1H-benzimidazol-2-yl)(3-cyclohexylmethoxyphenyl)methyl](1-methylpiperidin-4-yl)amine]",< 300,88
"CN1CCC(NC(c2cccc(OCCCCN)c2)c2nc3ccccc3[nH]2)CC1 (stereo not drawn) [Example 367, [[3-(4-aminobutoxy)phenyl](1H-benzimidazol-2-yl)methyl](1-methylpiperidin-4-yl)amine]",< 300,68
CN1CCC(OC(c2nc3ccccc3[nH]2)c2cc(Cc3ccccc3)ccc2O)CC1 (stereo not drawn) [Example 596],< 30,120

# Second part, the compound after the results:
Ki or IC50 activity class (human H4 receptor) [nM],melting point [°C],SMILES
< 30,185,CN1CCC(OC(c2nc3ccccc3[nH]2)c2cc(Cl)ccc2O)CC1 (stereo not drawn) [Example 569]
< 1000,108,COc1cc(F)cc(C(OC2CCN(C)CC2)c2nc3ccccc3[nH]2)c1O (stereo not drawn) [Example 610]
< 30,111,Cc1cccc(C(OC2CCN(C)CC2)c2nc3ccccc3[nH]2)c1O (stereo not drawn) [Example 586]
< 30,136,Cc1cc(O)c(C(OC2CCN(C)CC2)c2nc3ccccc3[nH]2)c(F)c1 (stereo not drawn) [Example 593]
< 300,112,COc1cccc(C(OC2CCN(C)CC2)c2nc3ccccc3[nH]2)c1O (stereo not drawn) [Example 592]
< 30,184,"CN1CCC(OC(c2nc3ccccc3[nH]2)c2ccc(F)c(F)c2O)CC1 (stereo not drawn) [Example 625, 6-[(1H-benzimidazol-2-yl)(1-methylpiperidin-4-yloxy)methyl]-2,3-difluorophenol]"
< 1000,161,CN1CCC(OC(c2nc3ccccc3[nH]2)c2cc(Cl)cc(Cl)c2O)CC1 (stereo not drawn) [Example 580]
< 300,146,COc1ccc(O)c(C(OC2CCN(C)CC2)c2nc3ccccc3[nH]2)c1 (stereo not drawn) [Example 573]
< 300,213,"CN1CCC(OC(c2nc3ccccc3[nH]2)c2ccccc2Br)CC1 (stereo not drawn) [Example 262, 2-[(2-bromophenyl)(1-methylpiperidin-4-yloxy)methyl]-1H-benzimidazole]"
< 300,185,"COc1ccc(F)c(C(OC2CCN(C)CC2)c2nc3ccccc3[nH]2)c1F (stereo not drawn) [Example 534, 2-[(2,6-difluoro-3-methoxyphenyl)(1-methylpiperidin-4-yloxy)methyl]-1H-benzimidazole]"
< 30,189,CN1CCC(OC(c2nc3ccccc3[nH]2)c2cc(O)ccc2O)CC1 (stereo not drawn) [Example 618]
< 30,133,CN1CCC(OC(c2nc3ccccc3[nH]2)c2ccc(OC(F)(F)F)cc2O)CC1 (stereo not drawn) [Example 621]
< 30,195,CN1CCC(OC(c2nc3ccccc3[nH]2)c2c(F)cc(Cl)cc2F)CC1 (stereo not drawn) [Example 527]
< 30,204,CN1CCC(OC(c2nc3ccccc3[nH]2)c2cc(OCC(F)(F)F)ccc2F)CC1 (stereo not drawn) [Example 522]
< 300,204,"CN1CCC(OC(c2nc3ccccc3[nH]2)c2cccc(SCCN)c2F)CC1 (stereo not drawn) [Example 352, 2-{3-[(1H-benzimidazol-2-yl)(1-methylpiperidin-4-yloxy)methyl]-2-fluorophenylsulfanyl}ethylamine]"
< 300,131,"CN1CCC(OC(c2ccc(F)cc2)c2nc3ccccc3[nH]2)CC1 (stereo not drawn) [Example 179, 2-[(4-fluorophenyl)(1-methylpiperidin-4-yloxy)methyl]-1H-benzimidazole]"
